Test results: PubChem BioAssay AID256 (DTP/NCI, 2004)
Where “and” joins values, the source holds several entries; their conditions need not be identical. Equal entries are not always repeated. Inconclusive results and toxic doses are left out. How the source made its calls: active means survival T/C of 150% or more; inactive means T/C below 125% in these data.

Test system: CD2F1 mice, L1210 leukemia ip, survival T/C
Assay: NCI In Vivo Anticancer Drug Screen. Data for tumor model L1210 Leukemia (intraperitoneal) in CD2F1 (CDF1) mice
Settings: endpoint: mean survival time, higher = longer survival
Summary of the method: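 Implant tumor; dose compound or vehicle; measure endpoint in both groups; report treated divided by control.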

[1] = dose: 100.0 mg/kg/injection, schedule: Q01DX009 (ip), vehicle: saline with Tween-80
[2] = dose: 100.0 mg/kg/injection, schedule: Q04DX003 (ip), vehicle: saline with Tween-80
[3] = dose: 200.0 mg/kg/injection, schedule: Q04DX003 (ip), vehicle: saline with Tween-80
[4] = dose: 400.0 mg/kg/injection, schedule: Q01DX009 (ip), vehicle: saline with Tween-80
[5] = dose: 400.0 mg/kg/injection, schedule: Q04DX003 (ip), vehicle: saline with Tween-80
[6] = dose: 50.0 mg/kg/injection, schedule: Q01DX009 (ip), vehicle: saline with Tween-80
[7] = dose: 200.0 mg/kg/injection, schedule: Q01DX009 (ip), vehicle: saline with Tween-80
[8] = dose: 25.0 mg/kg/injection, schedule: Q01DX009 (ip), vehicle: Klucel (hydroxypropylcellulose) (HPC)
[9] = dose: 50.0 mg/kg/injection, schedule: Q01DX009 (ip), vehicle: Klucel (hydroxypropylcellulose) (HPC)
[10] = dose: 12.5 mg/kg/injection, schedule: Q01DX009 (ip), vehicle: saline with Tween-80
[11] = dose: 25.0 mg/kg/injection, schedule: Q01DX009 (ip), vehicle: saline with Tween-80

Measured: T/C

O=C(O)c1ccc(Cl)c2ncccc12
inactive: dose: 37.5 mg/kg/injection, schedule: Q01DX009 (ip), vehicle: saline 100 % of control | dose: 75.0 mg/kg/injection, schedule: Q01DX009 (ip), vehicle: saline 95 % of control | dose: 75.0 mg/kg/injection, schedule: Q04DX003 (ip), vehicle: saline 100 % of control | dose: 150.0 mg/kg/injection, schedule: Q01DX009 (ip), vehicle: saline 105 % of control | dose: 150.0 mg/kg/injection, schedule: Q04DX003 (ip), vehicle: saline 97 % of control | dose: 300.0 mg/kg/injection, schedule: Q04DX003 (ip), vehicle: saline 95 % of control

OCC1OC(c2nnc3c4ccccc4cnn23)C(O)C1O (configuration not stated)
inactive: dose: 10.94 mg/kg/injection, schedule: Q01DX005 (ip), vehicle: water 100 % of control | dose: 11.25 mg/kg/injection, schedule: Q01DX005 (ip), vehicle: water 96 % of control | dose: 21.88 mg/kg/injection, schedule: Q01DX005 (ip), vehicle: water 94 % of control | dose: 22.5 mg/kg/injection, schedule: Q01DX005 (ip), vehicle: water 94 % of control | dose: 43.75 mg/kg/injection, schedule: Q01DX005 (ip), vehicle: water 93 % of control | dose: 45.0 mg/kg/injection, schedule: Q01DX005 (ip), vehicle: water 90 % of control | dose: 87.5 mg/kg/injection, schedule: Q01DX005 (ip), vehicle: water 94 % of control | dose: 90.0 mg/kg/injection, schedule: Q01DX005 (ip), vehicle: water 96 % of control | dose: 175.0 mg/kg/injection, schedule: Q01DX005 (ip), vehicle: water 93 % of control | dose: 180.0 mg/kg/injection, schedule: Q01DX005 (ip), vehicle: water 94 % of control

CC(C)SC(C(=O)O)(c1ccccc1)c1ccccc1
inactive: dose: 75.0 mg/kg/injection, schedule: Q01DX001 (ip), vehicle: other 100 % of control | dose: 150.0 mg/kg/injection, schedule: Q01DX001 (ip), vehicle: other 98 % of control | dose: 300.0 mg/kg/injection, schedule: Q01DX001 (ip), vehicle: other 90 % of control

CCOC(=O)C(C)(C)Br
inactive: dose: 100.0 mg/kg/injection, schedule: Q01DX009 (ip), vehicle: saline sonified 105 % of control | [1] 102 % of control | [2] 95 % of control and 98 % of control and 103 % of control | dose: 200.0 mg/kg/injection, schedule: Q01DX009 (ip), vehicle: saline sonified 100 % of control | [3] 95 % of control and 98 % of control and 100 % of control | dose: 400.0 mg/kg/injection, schedule: Q01DX009 (ip), vehicle: saline sonified 106 % of control | [4] 90 % of control | [5] 96 % of control and 103 % of control and 106 % of control

CCC[CH2][Sn-]([CH2]CCC)([CH2]CCC)[O]C(=O)C(C)C
inactive: dose: 375.0 micrograms/kg/injection, schedule: Q01DX009 (ip), vehicle: saline 93 % of control | dose: 750.0 micrograms/kg/injection, schedule: Q01DX009 (ip), vehicle: saline 100 % of control | dose: 1500.0 micrograms/kg/injection, schedule: Q01DX009 (ip), vehicle: saline 96 % of control

O=NN(CCCl)C(=O)Nc1ccc(Br)cn1
inactive: dose: 20.0 mg/kg/injection, schedule: Q01DX001 (ip), vehicle: carboxymethylcellulose (CMC) 115 % of control

OC12CC(C(F)(F)F)(C(F)(F)F)OC1(O)CC(C(F)(F)F)(C(F)(F)F)O2 (configuration not stated)
inactive: [6] 95 % of control | [1] 95 % of control | [7] 95 % of control

CCOC(=O)c1cnc(SCc2ccccc2Cl)nc1N1CC1
inactive: dose: 28.05 mg/kg/injection, schedule: Q01DX009 (ip), vehicle: saline with Tween-80 115 % of control

CCCCOC(=O)CCC(NC(=O)c1ccc(N(C)Cc2cnc3nc(N)nc(N)c3n2)cc1)C(=O)OCCCC (configuration not stated)
inactive: dose: 0.09 mg/kg/injection, schedule: Q01DX009 (ip), vehicle: distilled water + Tween-80 108 % of control | dose: 0.19 mg/kg/injection, schedule: Q01DX009 (ip), vehicle: distilled water + Tween-80 113 % of control and 91 % of control | dose: 0.75 mg/kg/injection, schedule: Q01DX009 (ip), vehicle: distilled water + Tween-80 108 % of control | dose: 1.5 mg/kg/injection, schedule: Q01DX009 (ip), vehicle: distilled water + Tween-80 89 % of control

Cl/C(=N\Nc1ccccc1)c1ccccc1
inactive: dose: 12.5 mg/kg/injection, schedule: Q01DX009 (ip), vehicle: Klucel (hydroxypropylcellulose) (HPC) 102 % of control | [8] 98 % of control | [9] 88 % of control

COc1ccccc1NC(N)=O
inactive: [1] 95 % of control | [7] 86 % of control | [4] 95 % of control

Cc1ncc(CO)c(C2NOCc3ccc(Cl)cc32)c1O (configuration not stated)
inactive: [8] 96 % of control | [9] 98 % of control

O=C([S-])N1CCCCC1.O=C([S-])N1CCCCC1.[Ni+2]
inactive: [10] 96 % of control | dose: 12.5 mg/kg/injection, schedule: Q04DX003 (ip), vehicle: saline sonified 100 % of control | [11] 93 % of control | dose: 25.0 mg/kg/injection, schedule: Q04DX003 (ip), vehicle: saline sonified 113 % of control | [6] 106 % of control | dose: 50.0 mg/kg/injection, schedule: Q04DX003 (ip), vehicle: saline sonified 92 % of control

O=C1NC(=O)NC(C(=O)O)N1
inactive: dose: 1.56 mg/kg/injection, schedule: Q01DX009 (ip), vehicle: DMSO 92 % of control | dose: 3.12 mg/kg/injection, schedule: Q01DX009 (ip), vehicle: DMSO 96 % of control | dose: 6.25 mg/kg/injection, schedule: Q01DX009 (ip), vehicle: DMSO 96 % of control | dose: 12.5 mg/kg/injection, schedule: Q01DX009 (ip), vehicle: DMSO 94 % of control and 98 % of control | dose: 25.0 mg/kg/injection, schedule: Q01DX009 (ip), vehicle: DMSO 97 % of control and 98 % of control and 101 % of control | dose: 50.0 mg/kg/injection, schedule: Q01DX009 (ip), vehicle: DMSO 97 % of control and 100 % of control | dose: 100.0 mg/kg/injection, schedule: Q01DX009 (ip), vehicle: DMSO 94 % of control and 97 % of control | dose: 200.0 mg/kg/injection, schedule: Q01DX009 (ip), vehicle: DMSO 102 % of control | dose: 400.0 mg/kg/injection, schedule: Q01DX009 (ip), vehicle: DMSO 98 % of control

O=C1C=C(c2ccccc2)C2(c3ccccc3)C1C1C(c3ccccc3)=C(c3ccccc3)C2C1(O)c1ccc2ccccc2c1 (configuration not stated)
inactive: [1] 89 % of control | [7] 92 % of control | [4] 92 % of control

CC(O)(c1ccccc1)c1ccccc1
inactive: [1] 104 % of control | [7] 102 % of control | [4] 96 % of control

O=C(Nc1ccc(Cl)c(Cl)c1)C(Cl)Cl
inactive: [10] 95 % of control | [11] 101 % of control | [6] 107 % of control

O=C(Nc1cccc(F)c1)c1ccco1
inactive: dose: 100.0 mg/kg/injection, schedule: Q04DX003 (ip), vehicle: Klucel (hydroxypropylcellulose) (HPC) 94 % of control | dose: 200.0 mg/kg/injection, schedule: Q04DX003 (ip), vehicle: Klucel (hydroxypropylcellulose) (HPC) 88 % of control | dose: 400.0 mg/kg/injection, schedule: Q04DX003 (ip), vehicle: Klucel (hydroxypropylcellulose) (HPC) 91 % of control

CCOC(=O)Cc1cnc(SC)nc1Nc1ccc(Br)cc1
inactive: dose: 100.0 mg/kg/injection, schedule: Q01DX001 (ip), vehicle: saline with Tween-80 89 % of control | dose: 200.0 mg/kg/injection, schedule: Q01DX001 (ip), vehicle: saline with Tween-80 89 % of control | dose: 400.0 mg/kg/injection, schedule: Q01DX001 (ip), vehicle: saline with Tween-80 100 % of control

CCCCCCCCCCCCCCCCCC[N+]1(C)CCOCC1
inactive: dose: 6.25 mg/kg/injection, schedule: Q04DX002 (ip), vehicle: Klucel (hydroxypropylcellulose) (HPC) 95 % of control | dose: 12.5 mg/kg/injection, schedule: Q04DX002 (ip), vehicle: Klucel (hydroxypropylcellulose) (HPC) 91 % of control | dose: 25.0 mg/kg/injection, schedule: Q04DX002 (ip), vehicle: Klucel (hydroxypropylcellulose) (HPC) 90 % of control and 98 % of control | dose: 100.0 mg/kg/injection, schedule: Q04DX002 (ip), vehicle: Klucel (hydroxypropylcellulose) (HPC) 101 % of control

FC1(F)C2Cc3ccccc3C2C1(Cl)Cl (configuration not stated)
inactive: dose: 75.0 mg/kg/injection, schedule: Q01DX001 (ip), vehicle: saline 103 % of control | dose: 150.0 mg/kg/injection, schedule: Q01DX001 (ip), vehicle: saline 101 % of control | dose: 300.0 mg/kg/injection, schedule: Q01DX001 (ip), vehicle: saline 100 % of control

O=c1[nH]cc(CCCc2ccccc2)c(=O)[nH]1
inactive: [2] 97 % of control | [3] 99 % of control | [5] 90 % of control
